These results are taken from patent US12391683B2, “Therapeutic compounds and methods” (Actio Biosciences, Inc., priority 2022, dated 2025).

Structures are written as SMILES. pIC50: −log10 of the molar value. “And” between values parts separate entries of the source, which are not always exact repeats. Identical values can stand only once.

For data set [1], the target named is recombinant human CYP3A4 enzyme (Homo sapiens, UniProt P08684). In words: CYP3A4 incubation assay. In kind it is in vitro ADME. Further details: Metabolic Stability in Recombinant Human CYP3A4 + NADPH (% remaining after 25 min): dose or concentration left out as unconfirmed. As to the method: Example 24. CYP3A4 Incubation Assay
Compounds (final concentration […]) were incubated in 100 mM phosphate buffer containing 100 pmol/mL recombinant human CYP3A4 enzyme for 0, 5, 10, 15 and 25 minutes.
Testosterone was used as positive control. Reaction was initiated by the addition of NADPH (final concentration […]) and carried out at 37° C. The reaction was stopped by the addition of 4 volumes of cold acetonitrile (with 100 nM alprazolam, 200 nM labetalol, 200 nM imipramine and 2 μM ketoprofen as internal standards). Samples were centrifuged at 3,220 g for 40 minutes to precipitate protein. 70 μL supernatant was transferred to the analysis plate containing 110 μL of acetonitrile for LC-MS/MS analysis.
The following table indicates the percentage remaining for the indicated examples after incubation with recombinant Human CYP3A4 after 25 minutes under the same conditions as described for Example […].

Data set [2] relates to Hepatocytes. The data set is described as follows: Hepatocytes predicted clearance, rat.
For data set [3], the system named is Hepatocytes. The data set is described as follows: Hepatocytes predicted clearance, dog.
Data set [4] has as its system Hepatocytes. In words: Hepatocytes predicted clearance, cyno.
Data set [5] deals with Hepatocytes. The data set is described as follows: Hepatocytes predicted clearance, mouse.
The subject of data set [6] is Hepatocytes. In words: Hepatocytes predicted clearance, human.
For a further data set, the target named is Human TRPV4 (Homo sapiens, UniProt Q9HBA0). In words: TRPV4 calcium flux assay (FLIPR, antagonist mode). Format: cell-based. Further details: HiBiT (inferred from the expression read-out); host or cells: HEK293T. To be noted: HEK293T cells transfected with hTRPV4; antagonist mode vs EC80 of TRPV4 agonist; average of at least 3 separate experiments; read-out: Human TRPV4 Ca2+ Assay IC50. On the procedure: Example 23. TRPV4 Calcium Assay Methods
Human embryonic kidney 293T (HEK293T/293T) cells are cultured in complete media (Dulbecco's Modified Eagle Medium (DMEM), containing 10% fetal bovine serum (FBS) and 1× penicillin-streptomycin) in a T-75 tissue culture flask. At 90% confluency, cells are detached using TrypLE™ Express cell dissociation buffer. TrypLE™ Express buffer is neutralized by adding culture media in excess. Cells are gently triturated and counted using trypan blue in a Countess 3 automated cell counter. Cells are transferred to a 50 mL conical tube and spun down at 1000 rotations per minute (RPM) for five minutes in a benchtop centrifuge. Media containing detaching enzyme is aspirated off the pellet, followed by resuspension to the desired concentration of 2×10^6 cells per mL in complete DMEM.
Transfection preparations were scaled using a combination of 6 μg of TRPV4 wild-type or mutant plasmid DNA, 36 μL of Fugene6 transfection reagent, and 1000 μL of OptiMEM media for every 2×10^6 cells needed. The transfection mix is left to incubate for 20 minutes at room temperature. Total seeding mixture (1000 μL 2×10^6 cells, 1000 μL transfection mix previously described, and 1000 μL complete DMEM) for one transfection is combined into a 15 mL conical tube. The cells and transfection plasmid are mixed thoroughly and dispensed into a reservoir. This is plated at 25 μL per well in a black 384, black-well, clear-bottom, tissue-culture treated plate. This yields approximately 16,000 cells per well. Plasmid DNA constructs were designed by Actio Biosciences in conjunction with Genscript, and generated by Genscript, for all hTRPV4 wild-type and hTRPV4 P/LP (ClinVar) mutations (G78W, P82S, T891, P97R, R186Q, R232C, R232P, R237G, R237Q, R237 L, R269C, R269H, R269S, G270V, R271P, F273 L, K276E, E278K, G280S, Y281S, R315G, R315W, R316C, R316H, R316 L, R316S, I331F, D333G, S403T, K403T, K407E, S542P, S542Y, L543R, Y591N, R594C, R594H, R594S, G600E, Y602C, R616Q, F617 L, L618P, V6201, A716S, A716T, L735R, T740I, R775K, W785R, E797D, E797K, P799A, P799R, P799S, P799 L, G800D, K801E, P827H, F471del, N797del). The remaining cells are plated in the same manner, in a 384, white-well, clear-bottom, tissue-culture treated plate for expression and relative cell number determination. Plates are placed in the incubator at 37° C. overnight.
Compounds were brought to 10 mM in DMSO. DMSO concentration was kept constant throughout the dilution of any compound. DMSO negative control and concentration-response curves were nanoliter-spotted via PICO8 automated dispenser at 5× test concentration into a 384w clear polypropylene plate containing 1×HBSS+20 mM HEPES buffer. A predetermined concentration equivalent to the EC80 of TRPV4 agonist on hTRPV4 was prepared at 6× in 1×HBSS+20 mM HEPES and loaded into a separate 384-well v-bottom polypropylene plate.
Approximately 18 hours post-transfection, the cell plates were removed from the incubator and equal volume (25 uL) Calcium 6 dye was gently added. Calcium 6 dye containing probenecid (final 5 mM) was prepared per manufacturer's instructions. Cell plate was returned to the incubator for 1 hour, at 37° C.
FLIPR Penta was programmed to add compound using the following settings • Pipettor Head=384 • Read Mode 1 Excitation Wavelength=470_495 • Read Mode 1 Emission Wavelength=515_575 • Read Mode 1 Exposure=0.1000 • Read Mode 1 Gain=6.50 • Read Mode 1 Excitation Intensity=20 • Volume of addition=12.5 μL • Height=40 μL • Speed=15 μL/second
Raw data was exported and analyzed for maximum signal (RFU) after agonist addition—the average baseline (RFU) in the first 15 seconds per well. Data was plotted in GraphPad Prism to determine EC50 or IC50 of the molecules.

The conditions of data set [7]: human clinical trials, background statement; cited from earlier work.
Where [8] appears, read: 100 pmol/mL recombinant human CYP3A4, 37° C., 0-25 min.

recombinant human CYP3A4 enzyme, sequence (P08684 whole entry): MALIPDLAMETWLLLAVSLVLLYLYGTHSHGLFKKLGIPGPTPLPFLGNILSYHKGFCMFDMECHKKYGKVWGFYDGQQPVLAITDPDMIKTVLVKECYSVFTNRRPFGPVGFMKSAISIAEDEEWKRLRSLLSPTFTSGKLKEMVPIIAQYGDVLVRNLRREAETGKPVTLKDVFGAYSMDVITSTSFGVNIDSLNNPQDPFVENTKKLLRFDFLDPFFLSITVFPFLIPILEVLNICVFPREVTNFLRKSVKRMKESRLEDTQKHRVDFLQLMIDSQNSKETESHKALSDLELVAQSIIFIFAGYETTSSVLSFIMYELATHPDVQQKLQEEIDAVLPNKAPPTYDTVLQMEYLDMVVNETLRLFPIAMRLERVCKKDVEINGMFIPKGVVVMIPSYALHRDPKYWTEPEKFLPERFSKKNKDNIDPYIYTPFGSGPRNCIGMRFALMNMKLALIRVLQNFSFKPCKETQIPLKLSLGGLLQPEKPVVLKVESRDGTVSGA
Human TRPV4, sequence (Q9HBA0 whole entry): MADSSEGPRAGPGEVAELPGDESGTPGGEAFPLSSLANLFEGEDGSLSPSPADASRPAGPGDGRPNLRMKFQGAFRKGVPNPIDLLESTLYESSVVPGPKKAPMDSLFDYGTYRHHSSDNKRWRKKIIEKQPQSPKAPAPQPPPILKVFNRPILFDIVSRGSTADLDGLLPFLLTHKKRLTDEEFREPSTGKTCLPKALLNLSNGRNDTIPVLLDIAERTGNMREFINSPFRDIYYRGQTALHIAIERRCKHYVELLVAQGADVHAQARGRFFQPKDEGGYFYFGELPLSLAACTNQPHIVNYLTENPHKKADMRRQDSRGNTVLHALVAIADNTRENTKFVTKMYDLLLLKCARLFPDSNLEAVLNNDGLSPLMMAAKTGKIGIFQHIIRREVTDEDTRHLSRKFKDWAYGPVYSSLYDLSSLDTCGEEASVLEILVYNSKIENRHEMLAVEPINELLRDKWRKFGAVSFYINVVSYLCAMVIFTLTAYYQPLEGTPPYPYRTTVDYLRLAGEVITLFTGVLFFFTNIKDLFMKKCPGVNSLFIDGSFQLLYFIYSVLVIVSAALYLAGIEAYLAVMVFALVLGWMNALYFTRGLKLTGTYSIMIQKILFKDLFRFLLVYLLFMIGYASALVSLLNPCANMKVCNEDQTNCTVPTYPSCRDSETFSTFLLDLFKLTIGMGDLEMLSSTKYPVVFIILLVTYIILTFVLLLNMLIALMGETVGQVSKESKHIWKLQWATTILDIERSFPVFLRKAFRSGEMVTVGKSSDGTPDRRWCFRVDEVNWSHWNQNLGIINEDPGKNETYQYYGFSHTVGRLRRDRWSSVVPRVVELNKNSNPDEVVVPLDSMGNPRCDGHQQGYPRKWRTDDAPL

As for `CC(C)(O)c1cnc(N2C[C@@]3(CCC[C@](CF)(Cn4cnc5ccc(C#N)cc54)C3)OC2=O)cn1` (single isomer, unassigned) [Example 7], in data set [1] (setting [8]), the “CYP3A4 Clint” value is <0.07, <0.07 μL/min/pmol CYP450. Moreover, the “Hepatocytes predicted clearance in rat” value in the data set on Hepatocytes [2] is 6.7 mL/min/kg. The “Hepatocytes predicted clearance in dog” value in the data set with Hepatocytes [3] was below 0.17 mL/min/kg. Moreover, the “Hepatocytes predicted clearance in cyno” value with Hepatocytes [4] is 4.5 mL/min/kg. The “Hepatocytes predicted clearance in mouse” value with Hepatocytes [5] is 43.2 mL/min/kg. In the data set with Hepatocytes [6], the “Hepatocytes predicted clearance in human” value is 1 mL/min/kg. Further, at Human TRPV4, the pIC50 is 7.96.
For the molecule `CC(C)(O)c1cnc(N2C[C@@]3(CC[C@H]4C[C@@]4(Cn4cnc5ccc(C#N)cc54)C3)OC2=O)cn1` (single isomer, unassigned) [Example 8], in data set [1] (human, recombinant enzyme), the “CYP3A4 Clint” value is <0.07, <0.07 μL/min/pmol CYP450. For the same molecule, the “Hepatocytes predicted clearance in rat” value with Hepatocytes [2] is 54.5 mL/min/kg. The “Hepatocytes predicted clearance in dog” value in the data set with Hepatocytes [3] is 30 mL/min/kg. In addition, the “Hepatocytes predicted clearance in cyno” value in the data set with Hepatocytes [4] was 37.5 mL/min/kg. Also, the “Hepatocytes predicted clearance in mouse” value with Hepatocytes [5] was 281.2 mL/min/kg. The “Hepatocytes predicted clearance in human” value with Hepatocytes [6] was below 0.17 mL/min/kg. Moreover, the pIC50 on Human TRPV4 was 6.41.
Consider `C=C1CC[C@@]2(CN(c3cnc(C(C)(C)O)cn3)C(=O)O2)C[C@@]1(C)Cn1cnc2ccc(C#N)cc21` (single isomer, unassigned) [Example 16], for which the “CYP3A4 Clint” value in data set [1] (setting [8]) is 0.20 μL/min/pmol CYP450 and 0.19 μL/min/pmol CYP450. In the data set on Hepatocytes [2], the “Hepatocytes predicted clearance in rat” value is 69.3 mL/min/kg. Further, in the data set on Hepatocytes [3], the “Hepatocytes predicted clearance in dog” value was 4 mL/min/kg. For the same molecule, the “Hepatocytes predicted clearance in cyno” value in the data set with Hepatocytes [4] is 22.7 mL/min/kg. Moreover, in the data set on Hepatocytes [5], the “Hepatocytes predicted clearance in mouse” value is 90.7 mL/min/kg. Besides, in the data set on Hepatocytes [6], the “Hepatocytes predicted clearance in human” value is 5.5 mL/min/kg. Moreover, the pIC50 on Human TRPV4 is 5.67.
Take `CC1(C)C[C@](C)(Cn2cnc3ccc(C#N)cc32)C[C@@]2(CN(c3cnc(C(C)(C)O)cn3)C(=O)O2)C1` (single isomer, unassigned) [Example 17]: in data set [1] (setting [8]), the “CYP3A4 Clint” value was 0.07, <0.07 μL/min/pmol CYP450. Also, in the data set on Hepatocytes [2], the “Hepatocytes predicted clearance in rat” value is 39.3 mL/min/kg. In addition, in the data set on Hepatocytes [3], the “Hepatocytes predicted clearance in dog” value was 1.3 mL/min/kg. The “Hepatocytes predicted clearance in cyno” value in the data set with Hepatocytes [4] is 43.7 mL/min/kg. Further, the “Hepatocytes predicted clearance in mouse” value with Hepatocytes [5] was 119 mL/min/kg. The “Hepatocytes predicted clearance in human” value in the data set with Hepatocytes [6] is 1.5 mL/min/kg. At Human TRPV4, the pIC50 is 5.24.
For `CC(C)(O)c1cnc(N2C[C@@]3(CCC(F)(F)[C@H](Cn4cnc5ccc(C#N)cc54)C3)OC2=O)cn1` [Example 2, 1-(((5S,7S)-8,8-Difluoro-3-(5-(2-hydroxypropan-2-yl)pyrazin-2-yl)-2-oxo-1-oxa-3-azaspiro[4.5]decan-7-yl)methyl)-1H-benzo[d]imidazole-6-carbonitrile], the “CYP3A4 Clint” value in data set [1] (setting [8]) was 0.08 μL/min/pmol CYP450 and < 0.07 μL/min/pmol CYP450. For the same molecule, in the data set with Hepatocytes [2], the “Hepatocytes predicted clearance in rat” value is below 0.17 mL/min/kg. For the same molecule, in the data set with Hepatocytes [3], the “Hepatocytes predicted clearance in dog” value was 1.3 mL/min/kg. In addition, the “Hepatocytes predicted clearance in cyno” value in the data set with Hepatocytes [4] is 34.8 mL/min/kg. Also, the “Hepatocytes predicted clearance in mouse” value in the data set on Hepatocytes [5] was 31 mL/min/kg. For the same molecule, the “Hepatocytes predicted clearance in human” value in the data set on Hepatocytes [6] was below 0.17 mL/min/kg. For the same molecule, the pIC50 at Human TRPV4 was 6.66.
For `CC(C)(O)c1cnc(N2C[C@@]3(CCC(F)(F)[C@](C)(Cn4cnc5ccc(C#N)cc54)C3)OC2=O)cn1` [Example 15, 1-(((5S,7S)-8,8-Difluoro-3-(5-(2-hydroxypropan-2-yl)pyrazin-2-yl)-7-methyl-2-oxo-1-oxa-3-azaspiro[4.5]decan-7-yl)methyl)-1H-benzo[d]imidazole-6-carbonitrile], the “CYP3A4 Clint” value in data set [1] (setting [8]) is 0.09 μL/min/pmol CYP450 and < 0.07 μL/min/pmol CYP450. In addition, the “Metabolic Stability in Recombinant Human CYP3A4 + NADPH (% remaining after 25 min)” value in data set [1] (recombinant Human CYP3A4 + NADPH) came out at 91.3%. In the data set with Hepatocytes [2], the “Hepatocytes predicted clearance in rat” value is 4.5 mL/min/kg. The “Hepatocytes predicted clearance in dog” value in the data set on Hepatocytes [3] is 4.33 mL/min/kg. In addition, the “Hepatocytes predicted clearance in cyno” value with Hepatocytes [4] is 28.3 mL/min/kg. Further, the “Hepatocytes predicted clearance in mouse” value in the data set with Hepatocytes [5] is 27.8 mL/min/kg. Further, in the data set on Hepatocytes [6], the “Hepatocytes predicted clearance in human” value is 3.83 mL/min/kg. For the same molecule, the pIC50 on Human TRPV4 was 8.10.
As for `CC(C)(O)c1cnc(N2C[C@@]3(CCC[C@](C)(Cn4cnc5ccc(C#N)cc54)C3)OC2=O)cn1` [GSK2798745, reference compound], in data set [1] (human, recombinant enzyme), the “CYP3A4 Clint” value is recorded as 0.18 μL/min/pmol CYP450 and the “Metabolic Stability in Recombinant Human CYP3A4 + NADPH (% remaining after 25 min)” value worked out at 69.6%. For the same molecule, the “efficacy across several human disease indications” value in data set [7] is recorded as “failed to show efficacy”. For the same molecule, in the data set with Hepatocytes [2], the “Hepatocytes predicted clearance in rat” value is 20.7 mL/min/kg. The “Hepatocytes predicted clearance in dog” value in the data set on Hepatocytes [3] is 7.17 mL/min/kg. In addition, in the data set with Hepatocytes [4], the “Hepatocytes predicted clearance in cyno” value was 21.5 mL/min/kg. Also, the “Hepatocytes predicted clearance in mouse” value in the data set on Hepatocytes [5] is 44.3 mL/min/kg. The “Hepatocytes predicted clearance in human” value in the data set on Hepatocytes [6] is below 0.17 mL/min/kg. Also, the pIC50 at Human TRPV4 is 8.00.
